Measurements published in publication PMC9091059 (Nature biotechnology, 2021).
Read-outs that look alike come from different tables or passages of the source.

Experiments:
[1] = system: spontaneous transient eCB2.0 signals in cultured neurons; type: cell-based, rat
eCB2.0 [2] = assay: BRET Gβγ sensor assay, cells expressing eCB2.0; type: cell-based, human; conditions: 20 μM 2-AG
human CB1R = human CB1R (Homo sapiens, UniProt P21554); assay: BRET Gβγ sensor assay, cells expressing CB1R; type: cell-based; conditions: 20 μM 2-AG
[3] = system: GRABeCBmut (eCBmut) sensor; type: cell-based, human; conditions: cultured rat cortical neurons, even at 100 μM
eCBmut = assay: BRET Gβγ sensor assay, cells expressing eCBmut; type: cell-based, human; conditions: 20 μM 2-AG
[4] = system: GRABeCBmut (eCBmut) sensor; assay: eCBmut fluorescence response to ligands in HEK293T cells; type: cell-based, human; conditions: all concentrations tested
wildtype CB1R = wildtype CB1R (Homo sapiens, UniProt P21554); assay: Gq-i Ca2+ imaging assay; type: cell-based; conditions: HEK293T cells expressing CB1R
eCB2.0 [5] = assay: Gq-i Ca2+ imaging assay; type: cell-based, human; conditions: HEK293T cells expressing eCB2.0
[6] = system: evoked eCB release in dorsolateral striatum (DLS) slices; set-up: species or system mouse
[7] = system: eCB2.0 fluorescence in hippocampal slices; assay: 2-photon imaging of eCB2.0 in acute hippocampal CA1 slices; set-up: species or system mouse
[8] = system: stimulus-evoked eCB2.0 signal in cultured rat cortical neurons; type: cell-based; conditions: 20 electrical pulses, 68 min after application; MAGL (JZL184) or FAAH (URB597) inhibition

wildtype CB1R, sequence (P21554 whole entry): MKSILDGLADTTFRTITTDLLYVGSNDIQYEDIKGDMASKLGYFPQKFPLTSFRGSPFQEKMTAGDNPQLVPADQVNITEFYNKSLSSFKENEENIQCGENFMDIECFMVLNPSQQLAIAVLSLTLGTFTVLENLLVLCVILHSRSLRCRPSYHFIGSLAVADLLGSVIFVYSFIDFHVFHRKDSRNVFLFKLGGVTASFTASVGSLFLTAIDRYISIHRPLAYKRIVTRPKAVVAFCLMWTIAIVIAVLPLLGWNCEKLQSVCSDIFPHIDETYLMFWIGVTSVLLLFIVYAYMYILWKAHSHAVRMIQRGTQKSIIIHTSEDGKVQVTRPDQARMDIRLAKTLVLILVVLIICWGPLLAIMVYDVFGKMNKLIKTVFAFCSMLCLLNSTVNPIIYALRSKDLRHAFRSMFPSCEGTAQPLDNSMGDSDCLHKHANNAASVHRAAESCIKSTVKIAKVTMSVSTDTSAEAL
human CB1R, sequence (P21554 whole entry): as above

O=C(NN1CCCCC1)c1nn(-c2ccc(Cl)cc2Cl)c2c1CCCc1cc(Cl)ccc1-2 [NESS0327]
effect on spontaneous eCB2.0 transients ([1]; NESS0327 1 μM, TTX 1 μM): no longer observed

CCCCC/C=C\C/C=C\C/C=C\C/C=C\CCCC(=O)OC(CO)CO [2-AG, 2-arachidonoylglycerol]
BRET change (Gβγ activation) (eCB2.0 [2]): no effect on BRET
BRET change (Gβγ activation) (human CB1R): robust increase in BRET
eCBmut fluorescence response [3]: neither 2-AG nor AEA elicited a response
BRET change (Gβγ activation) (eCBmut): no effect on BRET
eCBmut fluorescence response [4]: no response
jRGECO1a Ca2+ response (G protein activation via Gαq-i) (wildtype CB1R): increased jRGECO1a fluorescent response in a dose-dependent manner
jRGECO1a Ca2+ response (G protein activation via Gαq-i) (eCB2.0 [5]): failed in inducing jRGECO1a response

Cc1c(C(=O)NN2CCCCC2)nn(-c2ccc(Cl)cc2Cl)c1-c1ccc(I)cc1 [AM251]
effect on electrically evoked eCB2.0 signal [6]: blocked the response
effect on AEA-induced eCB2.0 fluorescence increase [7]: reversed
effect on electrically evoked eCB2.0 signal [7]: eliminated the signal induced by even 100 field stimuli
effect on spontaneous eCB2.0 transients [1]: no longer observed

CCCCC/C=C\C/C=C\C/C=C\C/C=C\CCCC(=O)NCCO [AEA, anandamide]
eCBmut fluorescence response [4]: no response

NC(=O)c1cccc(-c2cccc(OC(=O)NC3CCCCC3)c2)c1 [URB597]
effect on decay time constant of evoked eCB2.0 signal [8]: only a slight—albeit significant—effect on the decay time constant

O=C(Oc1ccc([N+](=O)[O-])cc1)N1CCC(C(O)(c2ccc3c(c2)OCO3)c2ccc3c(c2)OCO3)CC1 [JZL184]
effect on decay time constant of evoked eCB2.0 signal [8]: significantly increased the decay time constant
